Measurements from US20100178330A1, “ASYMMETRIC LIPOSOMES AND USES IN MEDICAL FIELD THEREOF” (priority 2007, published 2010).

Columns and labels:
[1] = system: M. tuberculosis H37Rv infected dTHP-1 cells; assay: Phagolysosome maturation: mycobacteria in acid compartments (Lyso Tracker Red / auramin confocal microscopy); format: cell-based; settings: 3 mM EGTA added to cells stimulated with PS/PA liposomes; FIG. 7
[2] = system: M. tuberculosis H37Rv infected dTHP-1 cells; assay: Phagolysosome maturation: mycobacteria in LAMP-1 expressing compartments (anti-LAMP-1 / auramin confocal microscopy); format: cell-based; settings: EGTA added to cells stimulated with PS/PA liposomes; FIG. 8

O=C(O)CN(CCOCCOCCN(CC(=O)O)CC(=O)O)CC(=O)O [EGTA]
effect on PS/PA liposome induced phagosome acidification [1]: inhibits the acidification process of phagosome restoring the initial conditions | effect on PS/PA liposome induced phagolysosome maturation (LAMP-1) [2]: inhibits
